This passage reports TGI and GI50 results from PubChem BioAssay (NCI).

Among the test systems are HOP-92 NSCLC; T-47D breast; TK-10 renal; UO-31 renal; OVCAR-8 ovarian; A549 NSCLC; SK-MEL-5 melanoma; PC-3 prostate; U251 CNS; BT-549 breast.
Assay in all cases: NCI tumour cell line growth inhibition, 48 h

Molecules are shown by their SMILES.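 A five-concentration, 48-hour dose response in 96-well plates underlies each endpoint, interpolated linearly between surrounding concentrations. Abbreviation: GI50, concentration required for 50% inhibition of growth. TGI denotes the concentration required for complete inhibition of growth.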

Regarding `O=C(CSCC(=O)N/N=C\c1cc(Br)cc(Br)c1O)N/N=C\c1cc(Br)cc(Br)c1O`, the TGI in the assay on HOP-92 NSCLC was 79 µM; in the assay with T-47D breast it was more than 100 µM; with TK-10 renal, 71.8 µM; in the assay on UO-31 renal, 49.6 µM; in the assay on OVCAR-8 ovarian, 68 µM; with A549 NSCLC it was more than 100 µM. Besides, the TGI in the assay with SK-MEL-5 melanoma is 92.2 µM; in the assay on PC-3 prostate, more than 100 µM; in the assay on U251 CNS, 22.3 µM; in the assay on BT-549 breast, more than 100 µM.

For `O=C1N[C@@H](c2c[nH]c3ccc(Br)cc23)C(=O)N[C@H]1c1c[nH]c2ccc(Br)cc12`, the TGI was determined as 15.5 µM in the assay with HOP-92 NSCLC; 36.4 µM in the assay with T-47D breast; 21.7 µM in the assay on TK-10 renal; 45 µM in the assay on UO-31 renal; 26 µM in the assay with OVCAR-8 ovarian; 33.8 µM in the assay on A549 NSCLC. In addition, the TGI was determined as 17.7 µM in the assay with SK-MEL-5 melanoma, 16.1 µM with PC-3 prostate, 21.9 µM in the assay on U251 CNS and 35.4 µM with BT-549 breast.

Take `COc1c(-c2ccc3c(c2)OCO3)oc2cc3c(c(OC)c2c1=O)OCO3`: the TGI is 79.6 µM in the assay with HOP-92 NSCLC; 36.7 µM in the assay on T-47D breast; 80.4 µM with TK-10 renal; 71 µM in the assay with UO-31 renal; 42.4 µM with OVCAR-8 ovarian; 54 µM in the assay on A549 NSCLC. In addition, the TGI in the assay with SK-MEL-5 melanoma is 35.5 µM; in the assay with PC-3 prostate it was 58 µM; in the assay with U251 CNS, 36.7 µM; in the assay on BT-549 breast it was 46.6 µM.

As to `CC(=S)NC1C(Oc2ccc3c(C)cc(=O)oc3c2)OC(CO)C(O)C1O` (stereo not given), the TGI with HOP-92 NSCLC, with T-47D breast, in the assay with TK-10 renal, in the assay on UO-31 renal, in the assay on OVCAR-8 ovarian and in the assay on A549 NSCLC was more than 100 µM in each case. Further, the TGI with SK-MEL-5 melanoma, in the assay on PC-3 prostate, in the assay on U251 CNS and in the assay with BT-549 breast was more than 100 µM throughout.

For the compound `c1ccc(C2(c3cc4ccccc4[nH]3)OCCO2)cc1`, the TGI in the assay on HOP-92 NSCLC, in the assay on T-47D breast, in the assay with TK-10 renal, with UO-31 renal, with OVCAR-8 ovarian and in the assay with A549 NSCLC was more than 100 µM each time. The TGI in the assay on SK-MEL-5 melanoma was 57 µM; in the assay on PC-3 prostate it was more than 100 µM; with U251 CNS, more than 100 µM; with BT-549 breast, more than 100 µM.

In the case of `O=C(O)CCCCCNC(=O)CCC(CN(CC(=O)OCc1ccccc1)CC(=O)OCc1ccccc1)N(CC(=O)OCc1ccccc1)CC(=O)OCc1ccccc1` (stereo not given), the TGI is 31.1 µM with HOP-92 NSCLC; 36.9 µM in the assay with T-47D breast; 29.9 µM with TK-10 renal; 29.3 µM in the assay with UO-31 renal; 30.1 µM with OVCAR-8 ovarian; 33.2 µM in the assay with A549 NSCLC. Also, the TGI in the assay with SK-MEL-5 melanoma was found to be 32.2 µM; in the assay on PC-3 prostate, 32.4 µM; in the assay with U251 CNS, 46.6 µM; in the assay on BT-549 breast it was 33.1 µM.

Turning to `CN(C)CCCn1c2c(c3ccncc3c1=O)C(=O)c1ccccc1-2`, the GI50 was 0.155 µM with HOP-92 NSCLC; 1.67 µM with T-47D breast; 1.98 µM in the assay with TK-10 renal; 0.546 µM in the assay with UO-31 renal; 0.616 µM in the assay on OVCAR-8 ovarian; 1 µM in the assay with A549 NSCLC. Besides, the GI50 with SK-MEL-5 melanoma was 1.07 µM; with PC-3 prostate it was 1.14 µM; in the assay with U251 CNS, 0.757 µM; in the assay with BT-549 breast, 2.09 µM. Further, the TGI with HOP-92 NSCLC was 2.39 µM; in the assay with T-47D breast it was 21 µM; in the assay on TK-10 renal it was 24.3 µM; with UO-31 renal it was 21 µM; in the assay on OVCAR-8 ovarian it was 15.3 µM; in the assay with A549 NSCLC, 38.6 µM. Moreover, the TGI with SK-MEL-5 melanoma stood at 2.5 µM; in the assay on PC-3 prostate, 9.78 µM; in the assay with U251 CNS it was 15.3 µM; in the assay with BT-549 breast, 13.1 µM.

In the case of `O=C(C(=O)n1ccc2ccccc21)c1c[nH]c2ccccc12`, the TGI with HOP-92 NSCLC, with T-47D breast, with TK-10 renal, in the assay with UO-31 renal, in the assay on OVCAR-8 ovarian and in the assay with A549 NSCLC was more than 10 µM in each case. For the same compound, the TGI in the assay with SK-MEL-5 melanoma, with PC-3 prostate, with U251 CNS and in the assay on BT-549 breast was more than 10 µM in each case.

As for `Nc1c2ccccc2nc2ccc(C(=O)Nc3ccc(S(N)(=O)=O)cc3)cc12`, the TGI in the assay on HOP-92 NSCLC, with T-47D breast, in the assay on TK-10 renal, in the assay with UO-31 renal, in the assay on OVCAR-8 ovarian and in the assay on A549 NSCLC was more than 100 µM each time. In addition, the TGI in the assay on SK-MEL-5 melanoma, in the assay with PC-3 prostate, in the assay with U251 CNS and with BT-549 breast was more than 100 µM each time.

Consider `CC(=O)CC(=O)Nn1c(-c2cccs2)nc2ccc(I)cc2c1=O`, for which the TGI in the assay on HOP-92 NSCLC is more than 100 µM; in the assay with T-47D breast, more than 100 µM; in the assay on TK-10 renal it was more than 100 µM; in the assay with UO-31 renal, more than 91.3 µM; in the assay on OVCAR-8 ovarian, more than 100 µM; in the assay on A549 NSCLC it was more than 100 µM. For the same compound, the TGI in the assay with SK-MEL-5 melanoma was more than 65.5 µM; in the assay on PC-3 prostate, more than 100 µM; with U251 CNS, more than 100 µM; in the assay with BT-549 breast it was more than 71 µM.

In the case of `Fc1ccccc1N=c1oc2ccc(Br)cc2cc1-c1nc2ccccc2[nH]1`, the TGI in the assay with HOP-92 NSCLC was 83.8 µM; in the assay with T-47D breast, more than 100 µM; with TK-10 renal, 17.2 µM; with UO-31 renal, 20.5 µM; in the assay with OVCAR-8 ovarian, more than 36.5 µM; with A549 NSCLC it was 23.1 µM. The TGI is 35.7 µM in the assay with SK-MEL-5 melanoma, more than 23.4 µM with PC-3 prostate, 20.1 µM in the assay with U251 CNS and 26.7 µM with BT-549 breast.

Take `C=CC(C)(C)c1cc([C@@H]2COc3cc(O)ccc3C2=O)c(O)c(OC)c1OC`: the TGI in the assay with HOP-92 NSCLC is 21.6 µM; in the assay on T-47D breast, 35.2 µM; in the assay on TK-10 renal it was more than 100 µM; in the assay on UO-31 renal, 28.3 µM; in the assay on OVCAR-8 ovarian it was 54.3 µM; in the assay with A549 NSCLC, 52 µM. Further, the TGI stood at 22.7 µM with SK-MEL-5 melanoma, 34.8 µM in the assay on PC-3 prostate, 26.8 µM in the assay with U251 CNS and 25.1 µM in the assay on BT-549 breast.

With `COc1cccc(C(=O)C(O)c2cccc(OC)c2OC)c1OC` (stereo not given), the TGI in the assay with HOP-92 NSCLC, in the assay on T-47D breast, in the assay on TK-10 renal, in the assay on UO-31 renal, with OVCAR-8 ovarian and in the assay with A549 NSCLC was more than 100 µM in each case. Besides, the TGI in the assay on SK-MEL-5 melanoma, in the assay on PC-3 prostate, with U251 CNS and in the assay with BT-549 breast was more than 100 µM in each case.
